Test [1] deals with V79. The test can be described thus: Differential hypoxic cytotoxicity towards chinese hamster cells (V79) using MTT assay under aerobic conditions. Format: functional, cell-based. As to conditions: Cricetulus griseus.
Test [2] deals with V79. The test is described as follows: Differential hypoxic cytotoxicity towards chinese hamster cells (V79) using MTT assay under anaerobic conditions. Format: functional, cell-based. As to conditions: Cricetulus griseus.

This passage reports IC50 results from ChEMBL document CHEMBL1128821, “Evaluation of differential hypoxic cytotoxicity and electrochemical studies of nitro 5-deazaflavins” (Bioorg Med Chem Lett, 1995).

Bounds are passed on as bounds.

As to `CCCCCCCCCCCCn1c2nc(=O)[nH]c(=O)c-2cc2cc([N+](=O)[O-])ccc21`, the IC50 in the test with V79 [1] is 16 µM; in the test with V79 [2], 22 µM.
In the case of `CCCCCCCCn1c2nc(=O)n(-c3ccccc3)c(=O)c-2cc2ccc([N+](=O)[O-])cc21`, the figures for the 50% inhibitory concentration (IC50) in the test with V79 [1] and with V79 [2] were 6.1 µM and 1.2 µM, respectively.
For `CCCCCCCCCCCCn1c2nc(=O)[nH]c(=O)c-2cc2ccc([N+](=O)[O-])cc21` the same measures were 300 µM and 190 µM.
For `CCCCCCCCn1c2nc(=O)n(-c3ccccc3)c(=O)c-2cc2ccccc21` the same measures were over 1000 µM and over 1000 µM.
For `CCCCCCCCn1c2nc(=O)n(-c3ccccc3)c(=O)c-2cc2cccc([N+](=O)[O-])c21` the same measures were 1.7 µM and 3.7 µM.
Consider `CCCCCCCCCCCCn1c2nc(=O)n(C)c(=O)c-2cc2ccc([N+](=O)[O-])cc21`, for which the IC50 was determined as 130 µM with V79 [1] and 61 µM in the test with V79 [2].
On the same counts, the results for `CCCCCCCCCCCCn1c2nc(=O)[nH]c(=O)c-2cc2cccc([N+](=O)[O-])c21` are 1.9 µM and 3.6 µM.
For `CCCCCCCCn1c2nc(=O)n(-c3ccccc3)c(=O)c-2cc2c([N+](=O)[O-])cccc21` the same measures were 3.6 µM and 0.56 µM.
On the same counts, the results for `CCCCCCCCCCCCn1c2nc(=O)[nH]c(=O)c-2cc2c([N+](=O)[O-])cccc21` are 4.3 µM and 1.1 µM.
`CCCCCCCCCCCCn1c2nc(=O)n(C)c(=O)c-2cc2cc([N+](=O)[O-])ccc21`: the IC50 with V79 [1] and in the test with V79 [2] was over 1000 µM in each case.
On to `CCCCCCCCCCCCn1c2nc(=O)[nH]c(=O)c-2cc2ccccc21`, for which the IC50 in the test with V79 [1] and with V79 [2] was over 1000 µM each time.
Regarding `CCCCCCCCCCCCn1c2nc(=O)n(C)c(=O)c-2cc2cccc([N+](=O)[O-])c21`, the IC50 in the test with V79 [1] and in the test with V79 [2] was over 1000 µM throughout.
Take `CCCCCCCCCCCCn1c2nc(=O)n(C)c(=O)c-2cc2c([N+](=O)[O-])cccc21`: the IC50 in the test with V79 [1] came to 7.2 µM; in the test with V79 [2], 2.9 µM.
For `CCCCCCCCn1c2nc(=O)n(-c3ccccc3)c(=O)c-2cc2cc([N+](=O)[O-])ccc21`, the IC50 in the test on V79 [1] amounted to 27 µM; in the test on V79 [2], 19 µM.
For `CCCCCCCCCCCCn1c2nc(=O)n(C)c(=O)c-2cc2ccccc21` the same measures were over 1000 µM and over 1000 µM.
On the same counts, the results for `NC(=O)N/N=C/c1ccc([N+](=O)[O-])o1` [NITROFURAZONE] are 740 µM and 270 µM.
